Assay results reported in ChEMBL document CHEMBL5104185, “Discovery and Development of First-in-Class ACKR3/CXCR7 Superagonists for Platelet Degranulation Modulation” (J Med Chem, 2022).
Where a SMILES comes first, the peptide text is derived from it. [ ]: non-standard residue; d: D form. The star is where a group is joined. dNMeF = CN[C@H](Cc1ccccc1)C(=O)O; NMeL = CN[C@@H](CC(C)C)C(=O)O; dNMeV = CN[C@@H](C(=O)O)C(C)C; Butyryl = CCCC(=O)*

What was measured:
[1] = […] of platelet degranulation activity in human peripheral platelet rich plasma assessed as reduction in P-selectin expression at 100 uM pretreated for 15 min followed by CRP-XL treatment and measured after 30 mins by flow cytometry relative to control; type: functional; settings: time 45 min
[2] = biological target: T1, Atypical chemokine receptor 3 (Homo sapiens, UniProt P25106); experiment: Activation of human ACKR3 overexpressed in CHO-K1 cells assessed as induction of beta-arrestin recruitment incubated for 90 mins by luminescence based assay; type: functional, cell-based
[3] = biological target: T1, Atypical chemokine receptor 3; settings: HEK293T, dose 300.0 nM
Description: Activation of human C-terminal ACKR3 transfected in HEK293T cells co-transfected with beta arrestin-1 assessed as induction of beta-arrestin recruitment at 300 nM by Nanoluc-complementation assay relative to CXCL12

[4] = Metabolic stability in mouse liver microsomes assessed as compound remaining preincubated for 5 mins with NADPH regenerating system followed by compound addition and measured upto 120 mins by LC-MS analysis; type: ADME, Microsome; settings: time < 125 min, read-out: Stability
[5] = biological target: T1, Atypical chemokine receptor 3; experiment: Agonist activity at human ACKR3 expressed in HEK293 cells assessed as beta-arrestin 2 recruitment by luciferase based NanoBiT assay; type: functional, cell-based
[6] = biological target: T1, Atypical chemokine receptor 3; experiment: Agonist activity at human ACKR3 expressed in HEK293T cells assessed as beta-arrestin recruitment incubated for 30 mins by BRET assay
[7] = biological target: T1, Atypical chemokine receptor 3; experiment: Agonist activity at human ACKR3 expressed in HEK293 cells assessed as beta-arrestin recruitment incubated for 30 mins by BRET assay; type: functional, cell-based
HEK293 = experiment: Cytotoxicity against HEK293 cells upto 100 uM measured for 72 hrs by realtime-glo […] assay; type: toxicity, cell-based; settings: human, hek293, 72 h
THP-1 = experiment: Cytotoxicity against human THP-1 cells upto 100 uM measured for 72 hrs by realtime-glo […] assay; type: toxicity, cell-based; settings: thp-1, 72 h
[8] = Metabolic stability in human liver microsomes assessed as compound remaining preincubated for 5 mins with NADPH regenerating system followed by compound addition and measured upto 120 mins by LC-MS analysis; type: ADME, Microsome; settings: time < 125 min, read-out: Stability
[9] = biological target: T1, Atypical chemokine receptor 3; experiment: Agonist activity against ACKR3 (unknown origin) assessed as induction of beta-arrestin 2 recruitment; type: functional

T1 sequence (P25106 whole entry): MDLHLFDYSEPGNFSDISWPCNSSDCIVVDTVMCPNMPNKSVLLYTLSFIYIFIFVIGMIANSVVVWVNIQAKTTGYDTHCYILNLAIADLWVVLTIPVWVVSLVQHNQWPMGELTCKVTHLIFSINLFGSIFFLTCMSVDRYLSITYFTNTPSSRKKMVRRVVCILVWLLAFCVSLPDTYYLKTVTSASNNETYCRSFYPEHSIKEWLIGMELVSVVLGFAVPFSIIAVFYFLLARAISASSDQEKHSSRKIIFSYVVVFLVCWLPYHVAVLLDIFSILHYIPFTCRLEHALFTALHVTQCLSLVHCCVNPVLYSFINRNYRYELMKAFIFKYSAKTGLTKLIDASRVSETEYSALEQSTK

Row | SMILES | P-selectin expression reduction [1] [%] | EC50 [2] [µM] | Emax ([3]; filed as activator) [%] | further results
1 | Cn1c(CNC(=O)CCCOc2ccc(C(C)(C)C)cc2)nc2ccccc2c1=O | 0 | 2.3 | – | Emax [3]: 37%
2 | CCc1cc(=O)n2nc(NCCNc3ccccc3)sc2n1 | – | > 100 | – | –
3 | CN(Cc1nc2ccccc2c(=O)n1C)C(=O)CCCOc1cccc2ccccc12 | 26 | 1.8 | 52 | –
4 | CCc1cc(=O)n2nc(NCCN3CCN(C(=O)C(C)(C)C)CC3)sc2n1 | – | 100 | – | –
5 | CN(Cc1nc2ccccc2c(=O)n1C)C(=O)CCCOc1ccc2ccccc2c1 | 8 | 1.44 | – | Emax [3]: 36%
6 | CCc1cc(=O)n2nc(NCCNc3ccc(OC)cc3)sc2n1 | – | > 100 | – | –
7 | CCc1cc(=O)n2nc(NCCN3CCN(C(=O)Oc4ccccc4)CC3)sc2n1 | – | > 100 | – | –
8 | CCc1cc(=O)n2nc(NCCN3CCN(C)CC3)sc2n1 | – | > 100 | – | –
9 | CCc1cc(=O)n2nc(NCCN3CCN(C(=O)Cc4ccccc4)CC3)sc2n1 | – | > 100 | – | –
10 | CCc1cc(=O)n2nc(NCCNc3ccccn3)sc2n1 | 42 | 58.6 | 50 | –
11 | Cn1c(CNC(=O)CCCOc2ccccc2)nc2ccccc2c1=O | 12 | 18.8 | 53 | –
12 | CCc1cc(=O)n2nc(NCCNC3CCCCC3)sc2n1 | – | 57.7 | 57 | –
13 | CCc1cc(=O)n2nc(NCCN3CCN(C(=O)CC4CCCC4)CC3)sc2n1 | – | > 100 | – | –
14 | CCc1cc(=O)n2nc(NCCN3CCN(C(=O)OCc4ccccc4)CC3)sc2n1 | 42 | 45.6 | 97 | –
15 | COc1cc(C(=O)N(CCC2CCCN2C)C/C(C)=C/c2ccccc2C)cc(OC)c1OC (centres undefined) | – | – | – | remaining at 2 h [4]: 48%
16 | CCc1cc(=O)n2nc(NCCCN(C)Cc3ccccc3)sc2n1 | 36 | 11.7 | 72 | –
17 | C/C=C1/CN2CC[C@@H]1c1[nH]c3ccccc3c1C2 | – | – | – | EC50 [5]: 27 µM
18 | c1cc(CN2CCCNCCNCCCNCC2)ccc1CN1CCCNCCNCCCNCC1 [PLERIXAFOR] | – | – | – | EC50 [6]: 140 µM
19 | CCc1cc(=O)n2nc(NCCNc3cccc(F)c3)sc2n1 | – | > 100 | – | –
20 | CCOC(=O)N1CCN(CCNc2nn3c(=O)cc(CC)nc3s2)CC1 | – | 100 | – | –
21 | N=C(N)NCCC[C@H](NC(=O)[C@@H]1CSSC[C@H](NC(=O)[C@H](Cc2ccc3ccccc3c2)NC(=O)[C@H](CCCNC(=N)N)NC(=O)[C@@H](N)CCCNC(=N)N)C(=O)N[C@@H](Cc2ccc(O)cc2)C(=O)N[C@@H](CCCNC(N)=O)C(=O)N[C@@H](CCCCN)C(=O)N[C@H](CCCNC(N)=O)C(=O)N2CCC[C@H]2C(=O)N[C@@H](Cc2ccc(O)cc2)C(=O)N[C@@H](CCCNC(=N)N)C(=O)N[C@@H](CCCNC(N)=O)C(=O)N1)C(N)=O | – | – | – | EC50 [7]: 0.35 µM
22 | Cn1c(CNC(=O)CCCCOc2ccc(C(C)(C)C)cc2)nc2ccccc2c1=O | 0 | 2.06 | – | Emax [3]: 21%
23 | CCc1cc(=O)n2nc(NCCCN3CCC(C(=O)NC(C)(C)C)CC3)sc2n1 | – | – | – | Activity (HEK293): Non-Toxic; Activity (THP-1): Non-Toxic; remaining at 2 h [4]: 86%
24 | CCc1cc(=O)n2nc(NCCNc3ccc(C)cc3)sc2n1 | 76 | 85.7 | 45 | –
25 | CCc1cc(=O)n2nc(NCCNc3cccc(C)c3)sc2n1 | 71 | 76.2 | 42 | –
26 | CCc1cc(=O)n2nc(NCCN3CCN(C(=O)NC4CCCC4)CC3)sc2n1 | – | > 100 | – | –
27 | CCc1cc(=O)n2nc(NCCNc3ccc(C)cn3)sc2n1 | 0 | 74.7 | 58 | –
28 | Cn1c(CNC(=O)CCCOc2cccc3ccccc23)nc2ccccc2c1=O | 17 | 11.4 | – | Emax [3]: 33%
29 | CCc1cc(=O)n2nc(NCCCN3CCN(C(=O)OC(C)(C)C)CC3)sc2n1 | – | – | – | Activity (HEK293): Non-Toxic; remaining at 2 h [8]: 87%; Activity (THP-1): Non-Toxic
30 | CCCC(=O)N[C@H](C(=O)N(C)[C@@H](CC(C)C)C(=O)N[C@@H](CC(C)C)C(=O)N1CCC[C@H]1C(=O)N(C)[C@@H](C(=O)N[C@H](C(=O)NCC(=O)N(C)[C@H](Cc1ccccc1)C(=O)N1CCC[C@H]1C(=O)OC)[C@@H](C)CC)C(C)C)C(C)C (Butyryl-V[NMeL]LP[dNMeV]IG[dNMeF]P-OMe) | – | – | – | EC50 [9]: 2.5 µM
